Results from patent publication US6313090A, “Methods for treating parasitic infection using thiopeptides” (The United States of America as represented by the …, priority 2000, dated 2001).
Read-outs that look alike come from different tables or passages of the source.

Tested on: C. parvum GCH1 oocysts
Test: Intact C. parvum oocyst assay on MDBKF5D2 cell monolayers, immunofluorescence
Format: cell-based
Conditions: for inhibition at 800 µg/mL / inhibition at 100 µg/mL / inhibition at 200 µg/mL / inhibition at 400 µg/mL / inhibition at 1 µg/mL / inhibition at 10 µg/mL / inhibition at 0.1 µg/mL: Cryptosporidium parvum
Experimental: In vitro doses of drugs. Thiostrepton (Calbiochem) was dissolved in sterile complete Dulbecco's Modified Eagle Medium (DMEM) supplemented with dimethyl sulfoxide (DMSO) at 0.2% and tested at concentrations of 800, 400, 200, and 100, 10, 1 and 0.1 μg/ml.
(§1) Intact C. parvum oocyst asset 3.0×10^4 C. parvum GCH1 oocysts per well were incubated in the above-mentioned concentrations of drug at 37° C. (8% CO2) on confluent MDBKF5D2 cell monolayers in 96 well microtiter plates. The level of infection in each well was determined and analyzed by immunofluorescence assay at 48 hours, using C. parvum sporozoite rabbit anti-serum (0.1%) and fluorescein-conjugated goat anti-rabbit antibody (1.0%). Percent inhibition was calculated by subtracting the mean parasite/drug from the mean parasitelmedium, divided by the mean parasite/medium, all of which was multiplied by 100. The analysis was performed using MCID and an inverted microscope.
In vitro doses of drugs. Thiostrepton (Calbiochem) and Phavic (NTZ) were dissolved in sterile complete Dulbecco's Modified Eagle Medium (DMEM) supplemented with dimethyl sulfoxide (DMSO) at 0.2% and tested at concentrations of 800, 400, 200, and 100 μg/ml. NTZ was tested at concentrations of 100, 10, 1 and 0.1 μg/ml. Paromomycin (Sigma) was dissolved in DMEM and tested at concentrations of 2000, 1000, 500 and 250 μg/ml.
as §1, with “assay .” for “asset”, “plates. For some monolayers, the oocysts were incubated in DMEM on the cell monolayers for four hours, at which time the monolayers were washed and then drug was added to the wells.” for “plates.”, “parasite/medium,” for “parasitelmedium,”
In vitro doses of drugs. Thiostrepton (Calbiochem), Phavic (NTZ) were dissolved in sterile complete Dulbecco's Modified Eagle Medium (DMEM) supplemented with dimethyl sulfoxide (DMSO) at 0.2%. Thiostrepton was tested at a concentration of 800 μg/ml. NTZ was tested at a concentration of 10 μg/ml. Paromomycin was dissolved in DMEM and tested at 2000 μg/ml. Cell monolayers were infected and washed, followed by the addition of drug at time intervals of 0, 2, 4, 8 and 24 hours.
as §1, with “assay.” for “asset”, “analyze” for “analyzed”, “parasite/medium,” for “parasitelmedium,”

Work on `C=C(NC(=O)C(=C)NC(=O)c1csc(C2=N[C@@H]3c4csc(n4)[C@H]4NC(=O)c5csc(n5)[C@H]([C@](C)(O)[C@@H](C)O)NC(=O)[C@H]5CSC(=N5)/C(=C/C)NC(=O)[C@H]([C@@H](C)O)NC(=O)c5csc(n5)[C@]3(CC2)NC(=O)[C@H](C)NC(=O)C(=C)NC(=O)[C@H](C)NC(=O)[C@H]([C@@H](C)CC)N[C@@H]2C=Cc3c([C@H](C)O)cc(nc3[C@H]2O)C(=O)O[C@@H]4C)n1)C(N)=O` [Thiostrepton, thiostrepton] yielded an inhibition at 800 µg/mL (0 h, read-out: Inhibition Percent, Table 5, 800 μg/ml, drug added at 0 hrs) of 91.2%, an inhibition at 800 µg/mL (0 h, read-out: Inhibition Score, Table 5, 800 μg/ml, drug added at 0 hrs) of 91 to 100% and an inhibition at 800 µg/mL (2 h, read-out: Inhibition Percent, Table 5, 800 μg/ml, drug added at 2 hrs) of 91.8%. It also gave an inhibition at 800 µg/mL (2 h, read-out: Inhibition Score, Table 5, 800 μg/ml, drug added at 2 hrs) of 91 to 100%, an inhibition at 100 µg/mL (4 h, read-out: Inhibition Percent, Table 4 Washed at 4 hours, 100 μg/ml) of 61% and an inhibition at 200 µg/mL (4 h, read-out: Inhibition Percent, Table 4 Washed at 4 hours, 200 μg/ml) of 78.7%. It also gave an inhibition at 400 µg/mL (4 h, read-out: Inhibition Percent, Table 4 Washed at 4 hours, 400 μg/ml) of 88.2%, an inhibition at 800 µg/mL (4 h, read-out: Inhibition Percent, Table 4 Washed at 4 hours, 800 μg/ml) of 87.4% and an inhibition at 800 µg/mL (4 h, read-out: Inhibition Percent, Table 5, 800 μg/ml, drug added at 4 hrs) of 84.5%. The inhibition at 100 µg/mL (4 h, read-out: Inhibition Score, Table 4 Washed at 4 hours, 100 μg/ml) was 56 to 70%, the inhibition at 200 µg/mL (4 h, read-out: Inhibition Score, Table 4 Washed at 4 hours, 200 μg/ml) was 71 to 90% and the inhibition at 400 µg/mL (4 h, read-out: Inhibition Score, Table 4 Washed at 4 hours, 400 μg/ml) was 71 to 90%. It also gave an inhibition at 800 µg/mL (4 h, read-out: Inhibition Score, Table 4 Washed at 4 hours, 800 μg/ml) of 71 to 90%, an inhibition at 800 µg/mL (4 h, read-out: Inhibition Score, Table 5, 800 μg/ml, drug added at 4 hrs) of 71 to 90% and an inhibition at 800 µg/mL (8 h, read-out: Inhibition Percent, Table 5, 800 μg/ml, drug added at 8 hrs) of 84.9%. The inhibition at 800 µg/mL (8 h, read-out: Inhibition Score, Table 5, 800 μg/ml, drug added at 8 hrs) was 71 to 90%, the inhibition at 800 µg/mL (24 h, read-out: Inhibition Percent, Table 5, 800 μg/ml, drug added at 24 hrs) was 75% and the inhibition at 800 µg/mL (24 h, read-out: Inhibition Score, Table 5, 800 μg/ml, drug added at 24 hrs) was 71 to 90%. It also gave an inhibition at 1 µg/mL (read-out: Inhibition Percent, Table 1, 1 μg/ml) of under 0%, an inhibition at 10 µg/mL (read-out: Inhibition Percent, Table 1, 10 μg/ml) of 12.4% and an inhibition at 100 µg/mL (read-out: Inhibition Percent, Table 1, 100 μg/ml) of 29.4%. For the same molecule, the inhibition at 0.1 µg/mL (read-out: Inhibition Percent, Table 1, .1 μg/ml) was under 0%, the inhibition at 100 µg/mL (read-out: Inhibition Percent, Table 2, 100 μg/ml) was 22.7% and the inhibition at 200 µg/mL (read-out: Inhibition Percent, Table 2, 200 μg/ml) was 51.8%. For the same molecule, the inhibition at 400 µg/mL (read-out: Inhibition Percent, Table 2, 400 μg/ml) was 72.6%, the inhibition at 800 µg/mL (read-out: Inhibition Percent, Table 2, 800 μg/ml) was 87.8% and the inhibition at 100 µg/mL (read-out: Inhibition Percent, Table 3 Unwashed, 100 μg/ml) was 35.4%. The inhibition at 200 µg/mL (read-out: Inhibition Percent, Table 3 Unwashed, 200 μg/ml) was 68.2%, the inhibition at 400 µg/mL (read-out: Inhibition Percent, Table 3 Unwashed, 400 μg/ml) was 87.4% and the inhibition at 800 µg/mL (read-out: Inhibition Percent, Table 3 Unwashed, 800 μg/ml) was 91.4%. It also gave an inhibition at 100 µg/mL (read-out: Inhibition Percent, Table 6, 100 μg/ml) of 36.5%, an inhibition at 200 µg/mL (read-out: Inhibition Percent, Table 6, 200 μg/ml) of 65.7% and an inhibition at 400 µg/mL (read-out: Inhibition Percent, Table 6, 400 μg/ml) of 79%. It also gave an inhibition at 800 µg/mL (read-out: Inhibition Percent, Table 6, 800 μg/ml) of 83.7%, an inhibition at 1 µg/mL (read-out: Inhibition Score, Table 1, 1 μg/ml) of 0 to 30% and an inhibition at 10 µg/mL (read-out: Inhibition Score, Table 1, 10 μg/ml) of 0 to 30%. It also gave an inhibition at 100 µg/mL (read-out: Inhibition Score, Table 1, 100 μg/ml) of 0 to 30%, an inhibition at 0.1 µg/mL (read-out: Inhibition Score, Table 1, .1 μg/ml) of 0 to 30% and an inhibition at 100 µg/mL (read-out: Inhibition Score, Table 2, 100 μg/ml) of 0 to 30%. It also gave an inhibition at 200 µg/mL (read-out: Inhibition Score, Table 2, 200 μg/ml) of 31 to 55%, an inhibition at 400 µg/mL (read-out: Inhibition Score, Table 2, 400 μg/ml) of 71 to 90% and an inhibition at 800 µg/mL (read-out: Inhibition Score, Table 2, 800 μg/ml) of 71 to 90%. For the same molecule, the inhibition at 100 µg/mL (read-out: Inhibition Score, Table 3 Unwashed, 100 μg/ml) was 31 to 55%, the inhibition at 200 µg/mL (read-out: Inhibition Score, Table 3 Unwashed, 200 μg/ml) was 56 to 70% and the inhibition at 400 µg/mL (read-out: Inhibition Score, Table 3 Unwashed, 400 μg/ml) was 71 to 90%. It also gave an inhibition at 800 µg/mL (read-out: Inhibition Score, Table 3 Unwashed, 800 μg/ml) of 91 to 100%, an inhibition at 100 µg/mL (read-out: Inhibition Score, Table 6, 100 μg/ml) of 31 to 55% and an inhibition at 200 µg/mL (read-out: Inhibition Score, Table 6, 200 μg/ml) of 56 to 70%. For the same molecule, the inhibition at 400 µg/mL (read-out: Inhibition Score, Table 6, 400 μg/ml) was 71 to 90%, the inhibition at 800 µg/mL (read-out: Inhibition Score, Table 6, 800 μg/ml) was 71 to 90% and the “Parasite Count” value (Table 1, 1 μg/ml) was 1193.19. For the same molecule, the “Parasite Count” value (Table 1, 10 μg/ml) was 909.25, the “Parasite Count” value (Table 1, 100 μg/ml) was 732.31 and the “Parasite Count” value (Table 1, .1 μg/ml) was 1052.13. For the same molecule, the “Parasite Count” value (Table 2, 100 μg/ml) was 943.31, the “Parasite Count” value (Table 2, 200 μg/ml) was 587.81 and the “Parasite Count” value (Table 2, 400 μg/ml) was 334.06. For the same molecule, the “Parasite Count” value (Table 2, 800 μg/ml) was 149.25, the “Parasite Count” value (Table 3 Unwashed, 100 μg/ml) was 795.63 and the “Parasite Count” value (Table 3 Unwashed, 200 μg/ml) was 391.19. The “Parasite Count” value (Table 3 Unwashed, 400 μg/ml) was 154.88, the “Parasite Count” value (Table 3 Unwashed, 800 μg/ml) was 106.06 and the “Parasite Count” value (Table 4 Washed at 4 hours, 100 μg/ml) was 543.88. For the same molecule, the “Parasite Count” value (Table 4 Washed at 4 hours, 200 μg/ml) was 297.19, the “Parasite Count” value (Table 4 Washed at 4 hours, 400 μg/ml) was 164.31 and the “Parasite Count” value (Table 4 Washed at 4 hours, 800 μg/ml) was 176.31. For the same molecule, the “Parasite Count” value (Table 5, 800 μg/ml, drug added at 0 hrs) was 112.44, the “Parasite Count” value (Table 5, 800 μg/ml, drug added at 2 hrs) was 104.19 and the “Parasite Count” value (Table 5, 800 μg/ml, drug added at 4 hrs) was 196.81. The “Parasite Count” value (Table 5, 800 μg/ml, drug added at 8 hrs) was 192.56, the “Parasite Count” value (Table 5, 800 μg/ml, drug added at 24 hrs) was 318.25 and the “Parasite Count” value (Table 6, 100 μg/ml) was 871.25. For the same molecule, the “Parasite Count” value (Table 6, 200 μg/ml) was 470.69, the “Parasite Count” value (Table 6, 400 μg/ml) was 288.13 and the “Parasite Count” value (Table 6, 800 μg/ml) was 223.13. The “activity against C. parvum in vitro” value (concentrations of 200 and above, Tables 1 and 2) was “good activity”, the “effectiveness compared with PRM” value (in vitro, summary statement) was “more effective than PRM at about one-fifth the dose” and the “activity when drug is added 24 hours after infection” value (intracellular stages only) was “still highly inhibitory”.
